US7863449B2, “Modulators of muscarinic receptors” (Vertex Pharmaceuticals Incorporated, priority 2004, dated 2011)
Structures can show the parent of a compound that is named as a salt.

Key:
M1 muscarinic receptor = target: T1, M1 muscarinic receptor (Homo sapiens, UniProt P11229); assay: Functional mobilization of intracellular calcium (FLIPR), M1-CHO cells; format: cell-based; conditions: for Emax: 100% efficacy is the maximum response obtained using Carbachol as a control; for M1 Activity: M1-CHO cells, FLIPR calcium mobilization
T1 construct: expressed in transfected cells; host or cells: CHO (M1-CHO)
T1 sequence (P11229 1-460): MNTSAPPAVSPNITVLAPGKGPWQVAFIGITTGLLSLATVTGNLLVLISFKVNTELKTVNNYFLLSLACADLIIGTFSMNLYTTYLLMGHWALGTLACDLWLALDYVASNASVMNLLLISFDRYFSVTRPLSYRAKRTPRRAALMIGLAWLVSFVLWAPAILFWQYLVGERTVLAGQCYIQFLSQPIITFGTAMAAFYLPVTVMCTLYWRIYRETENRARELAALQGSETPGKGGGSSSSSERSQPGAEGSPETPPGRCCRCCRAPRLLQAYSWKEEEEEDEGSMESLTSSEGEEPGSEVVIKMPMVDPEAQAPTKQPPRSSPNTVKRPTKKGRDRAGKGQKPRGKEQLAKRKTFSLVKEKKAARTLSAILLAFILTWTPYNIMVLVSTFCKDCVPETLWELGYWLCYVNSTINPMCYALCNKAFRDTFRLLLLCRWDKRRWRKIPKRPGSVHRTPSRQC
How it was run: (§1)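 CHO cells expressing M1 or M4, loaded with Fluo-3 AM or Calcium 3 dye with 1 mM probenecid, 0.5% DMSO final. Agonist mode: compound added directly; antagonist mode: 15 min pre-incubation (or co-application) before carbachol at EC80. Fluorescence recorded 60 s on FLIPR.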

M4 muscarinic receptor = target: T2, M4 muscarinic receptor (Homo sapiens, UniProt P08173); assay: Functional mobilization of intracellular calcium (FLIPR), M4-CHO cells; format: cell-based; conditions: for Emax: 100% efficacy is the maximum response obtained using Carbachol as a control; for M4 Activity: M4-CHO cells, FLIPR calcium mobilization
T2 construct: expressed in transfected cells; host or cells: CHO (M4-CHO)
T2 sequence (P08173 1-479): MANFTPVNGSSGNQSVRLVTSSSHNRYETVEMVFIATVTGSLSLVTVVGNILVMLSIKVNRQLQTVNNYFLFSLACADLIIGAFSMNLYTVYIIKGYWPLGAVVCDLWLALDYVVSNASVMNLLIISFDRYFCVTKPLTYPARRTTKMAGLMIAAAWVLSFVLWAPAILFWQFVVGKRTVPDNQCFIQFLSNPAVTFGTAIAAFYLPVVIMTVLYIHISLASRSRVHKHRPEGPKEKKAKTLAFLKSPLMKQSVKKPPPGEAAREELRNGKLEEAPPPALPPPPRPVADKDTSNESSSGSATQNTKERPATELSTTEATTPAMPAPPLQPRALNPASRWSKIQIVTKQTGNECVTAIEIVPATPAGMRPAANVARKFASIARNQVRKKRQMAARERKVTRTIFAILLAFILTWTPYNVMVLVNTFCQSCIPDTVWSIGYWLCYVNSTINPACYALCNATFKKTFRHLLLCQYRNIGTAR
How it was run: as §1

Row | SMILES | Emax (M1 muscarinic receptor) [%] | M1 Activity (M1 muscarinic receptor) | Emax (M4 muscarinic receptor) [%] | M4 Activity (M4 muscarinic receptor)
1 | CCOC(=O)N1C2CCC1CC(N1CCC3(CC1)CN(S(=O)(=O)c1ccc(F)cc1)Cc1ccccc13)C2 (stereo not drawn) [compound 205, Ethyl 3-(2-(4-fluorophenylsulfonyl)-2,3-dihydro-1H-spiro-[isoquinoline-4,4′-piperidine]-1′-yl)-8-azabicyclo[3.2.1]-octane-8-carboxylate hydrochloride] | 25 to 100 | +++ (activity was measured to be less than 1.0 μM) | 25 to 100 | +++ (activity was measured to be less than 1.0 μM)
2 | COC(=O)N1Cc2ccccc2C2(CCN(C3CC4CCC(C3)N4C(=O)OC(C)C)CC2)C1 (stereo not drawn) [compound 206] | 25 to 100 | +++ (activity was measured to be less than 1.0 μM) | 25 to 100 | +++ (activity was measured to be less than 1.0 μM)
3 | COCCOC(=O)N1CCC(CN2CCC3(CC2)CN(C(C)=O)Cc2ccccc23)CC1 [compound 207] | 25 to 100 | + (activity was measured to be greater than 5.0 μM) | 25 to 100 | ++ (activity was measured to be from 1.0 μM to 5.0 μM)
4 | CCOC(=O)N1CCC(CN2CCC3(CC2)CN(C(=O)C2CC2)Cc2ccccc23)CC1 [compound 208] | 25 to 100 | +++ (activity was measured to be less than 1.0 μM) | 25 to 100 | +++ (activity was measured to be less than 1.0 μM)
5 | CCOC(=O)N1CCC(N2CCC3(CC2)CN(C(=O)CC(F)(F)F)Cc2ccccc23)CC1 [compound 209] | 25 to 100 | +++ (activity was measured to be less than 1.0 μM) | 25 to 100 | +++ (activity was measured to be less than 1.0 μM)
6 | Cc1cc(C(=O)N2Cc3ccccc3C3(CCN(C4CC5CCC(C4)N5C(=O)O[C@@H]4CCOC4)CC3)C2)nn1C (stereo partly drawn) [compound 210] | 25 to 100 | +++ (activity was measured to be less than 1.0 μM) | 25 to 100 | +++ (activity was measured to be less than 1.0 μM)
7 | CCOC(=O)N1CCC(N2CCC3(CC2)CN(C(=O)N2CCCCC2)Cc2ccccc23)CC1 [compound 211] | 25 to 100 | +++ (activity was measured to be less than 1.0 μM) | < 25 | + (activity was measured to be greater than 5.0 μM)
8 | O=C(OC1CCC1)N1Cc2ccccc2C2(CCN(C3CC4CCC(C3)N4C(=O)O[C@H]3CCOC3)CC2)C1 (stereo partly drawn) [compound 212] | – | +++ (activity was measured to be less than 1.0 μM) | – | +++ (activity was measured to be less than 1.0 μM)
9 | CCOC(=O)N1C2CCC1CC(N1CCC3(CC1)CN(C(=O)c1cnoc1C)Cc1ccccc13)C2 (stereo not drawn) [compound 213] | 25 to 100 | +++ (activity was measured to be less than 1.0 μM) | 25 to 100 | +++ (activity was measured to be less than 1.0 μM)
10 | CCOC(=O)N1CCC(CN2CCC3(CC2)CN(C(=O)c2ccno2)Cc2ccccc23)CC1 [compound 214] | 25 to 100 | +++ (activity was measured to be less than 1.0 μM) | 25 to 100 | +++ (activity was measured to be less than 1.0 μM)
11 | CC(=O)N1Cc2ccccc2C2(CCN(C3CCOCC3)CC2)C1 [compound 215] | 25 to 100 | ++ (activity was measured to be from 1.0 μM to 5.0 μM) | 25 to 100 | + (activity was measured to be greater than 5.0 μM)
12 | CCOC(=O)N1CC[C@@H](CN2CCC3(CC2)CN(C(C)=O)Cc2ccccc23)C1 [compound 216] | 25 to 100 | +++ (activity was measured to be less than 1.0 μM) | 25 to 100 | +++ (activity was measured to be less than 1.0 μM)
13 | CC(=O)N1Cc2ccccc2C2(CCN(Cc3cc4ccccc4o3)CC2)C1 [compound 217] | < 25 | + (activity was measured to be greater than 5.0 μM) | < 25 | + (activity was measured to be greater than 5.0 μM)
14 | CCOC(=O)N1C2CCC1CC(N1CCC3(CC1)CN(S(=O)(=O)Cc1ccccc1)Cc1ccccc13)C2 (stereo not drawn) [compound 218] | 25 to 100 | +++ (activity was measured to be less than 1.0 μM) | 25 to 100 | +++ (activity was measured to be less than 1.0 μM)
15 | CCOC(=O)N1C2CCC1CC(N1CCC3(CC1)CN(C(=O)c1cc(C)n(C)n1)Cc1ccccc13)C2 (stereo not drawn) [compound 219] | 25 to 100 | +++ (activity was measured to be less than 1.0 μM) | 25 to 100 | +++ (activity was measured to be less than 1.0 μM)
16 | CCOC(=O)N1C2CCC1CC(N1CCC3(CC1)CN(C(=O)c1snnc1C(C)C)Cc1ccccc13)C2 (stereo not drawn) [compound 220] | 25 to 100 | +++ (activity was measured to be less than 1.0 μM) | 25 to 100 | +++ (activity was measured to be less than 1.0 μM)
17 | CCOC(=O)N1CCC(N2CCC3(CC2)CN(C(=O)c2ccccc2)Cc2ccccc23)CC1 [compound 221] | 25 to 100 | +++ (activity was measured to be less than 1.0 μM) | 25 to 100 | +++ (activity was measured to be less than 1.0 μM)
18 | CS(=O)(=O)N1Cc2ccccc2C2(CCN(C3CC4CCC(C3)N4C(=O)O[C@@H]3CCOC3)CC2)C1 (stereo partly drawn) [compound 222] | 25 to 100 | +++ (activity was measured to be less than 1.0 μM) | 25 to 100 | +++ (activity was measured to be less than 1.0 μM)
19 | Cc1cc(C(=O)N2Cc3ccccc3C3(CCN(C4CC5CCC(C4)N5C(=O)OC4CCC4)CC3)C2)nn1C (stereo not drawn) [compound 223] | 25 to 100 | +++ (activity was measured to be less than 1.0 μM) | 25 to 100 | +++ (activity was measured to be less than 1.0 μM)
20 | CCOC(=O)N1C2CCC1CC(N1CCC3(CC1)CN(C(=O)C1CC1)Cc1ccccc13)C2.Cl (stereo not drawn) [compound 224, Ethyl 3-(2-(cyclopropanecarbonyl)-2,3-dihydro-1H-spiro[isoquinoline-4,4′-piperidine]-1′-yl)-8-azabicyclo-[3.2.1]octane-8-carboxylate hydrochloride] | 25 to 100 | +++ (activity was measured to be less than 1.0 μM) | 25 to 100 | +++ (activity was measured to be less than 1.0 μM)
21 | CCOC(=O)N1CCC(N2CCC3(CC2)CN(C(=O)c2cnon2)Cc2ccccc23)CC1 [compound 225] | 25 to 100 | +++ (activity was measured to be less than 1.0 μM) | 25 to 100 | +++ (activity was measured to be less than 1.0 μM)
22 | O=C1c2ccccc2C2(CCN([C@@H]3C[C@@H]4CC[C@@H]3C4)CC2)N1Cc1ccccc1 [compound 227] | < 25 | + (activity was measured to be greater than 5.0 μM) | < 25 | + (activity was measured to be greater than 5.0 μM)
23 | CCOC(=O)N1CCC(N2CCC3(CC2)CN(C(=O)CC(C)C)Cc2ccccc23)CC1 [compound 229] | 25 to 100 | +++ (activity was measured to be less than 1.0 μM) | 25 to 100 | +++ (activity was measured to be less than 1.0 μM)
